Experiments:
[1] = test system: Corynebacterium ammoniagenes KCCM 10340; assay: Growth of the strain in medium with added oligomycin (resistance test); type: cell-based; parameters: key: +: growth; −: no growth; conditions: 30° C. for 5 days
From the text: (§1) The invention relates to Corynebacterium ammoniagenes CJXOL 0201 (KCCM-10447) which is a mutant strain of Corynebacterium ammoniagenes KCCM 10340, producing 5′-xanthylic acid. The CJXOL 0201 is obtained by treating Corynebacterium ammoniagenes KCCM 10340 with UV radiation and mutation derivatives such as N-methy-N′-nitro-n-nitrosoguanidine(NTG) according to ordinary procedure, and selecting a mutant strain among these which can grow in the culture medium (glucose 20 g/L, potassium phosphate monobasic 1 g/L, potassium phosphate dibasic 1 g/L, urea 2 g/L, ammonium sulfate 3 g/L, magnesium sulfate 1 g/L, calcium chloride 100 mg/L, ferrous sulfate 20 mg/L, manganese sulfate 10 mg/L, zinc sulfate 10 mg/L, biotin 30 μg/L, thiamine hydrochloride 0.1 mg/L, copper sulfate 0.8 mg/L, adenine 20 mg/L, guanine 20 mg/L, pH 7.2) which different concentration levels of oligomycin (1,2,5,10,20,50 mg/L) is added into. […] 21, 2002 with accession Number KCCM 10447.
(§2) According to the Table 1, the microorganism of the invention can grow in the medium which 10 mg/L oligomycin was added into. The medium was: fermented at 30° C. for 5 days.

[2] = test system: Corynebacterium ammoniagenes CJXOL 0201; assay: as above; type: cell-based; parameters: key to growth of strain: +: growth; −: no growth
From the text: as §1, §2

SMILES: CC[C@H]1/C=C/C=C/C[C@@H](C)[C@H](O)[C@@](C)(O)C(=O)[C@@H](C)[C@H](O)[C@@H](C)C(=O)[C@@H](C)[C@H](O)[C@@H](C)/C=C/C(=O)O[C@@H]2[C@H](C)[C@H](CC1)O[C@]1(CC[C@H](C)[C@H](C[C@@H](C)O)O1)[C@H]2C [Oligomycin, oligomycin]
- growth of strain ([1]; oligomycin 10 mg/L): +
- growth of strain ([1]; oligomycin 20 mg/L): −
- growth of strain ([1]; oligomycin 30 mg/L): −
- growth of strain ([1]; oligomycin 40 mg/L): −
- growth of strain ([1]; oligomycin 50 mg/L): −
- oligomycin concentration up to which resistance (growth) was shown; no growth above ([2]; 0˜50 mg/L oligomycin added into selection medium): up to 20 mg/L
- growth in medium with oligomycin ([2]; oligomycin 10 mg/L, 30° C. for 5 days): can grow
- growth of strain ([2]; oligomycin 30 mg/L, 30° C. for 5 days): +
- growth of strain ([2]; oligomycin 40 mg/L, 30° C. for 5 days): −
- growth of strain ([2]; oligomycin 50 mg/L, 30° C. for 5 days): −

Reference: US20060154346A1, “Microorganism producing 5'xanthylic acid” (priority 2002, published 2006)
